# Counter-ions that a name gives are not always drawn.
row,melting point [°C],Structure (SMILES)
1,136 to 137,"COc1ccc(CNc2nc(COCC(=O)O)nc3sc4c(c23)CCCC4)cc1Cl (as salt: salt) [Example 6, [4-(3-chloro-4-methoxybenzylamino)-5,6,7,8-tetrahydrobenzo[4,5]thieno-[2,3-d]pyrimidin-2-ylmethoxy]acetic acid]"
2,158 to 160,"CCOC(=O)CSCc1nc(NCc2ccc(OC)c(Cl)c2)c2c3c(sc2n1)CCCC3 [Example 5, ethyl [4-(3-chloro-4-methoxybenzylamino)-5,6,7,8-tetrahydrobenzo[4,5]thieno-[2,3-d]pyrimidin-2-ylmethylsulfanyl]acetate]"

# From patent US6780867B2, “Thienopyrimidines” (Merck Patent GmbH, priority 2000, dated 2004)
